Results on three compounds are retold here after patent publication US12234216B2, “Isotopologues salts, crystalline forms, stereoisomers, of methylone and ethylone and methods of use thereof” (Terran Biosciences Inc., priority 2021, dated 2025).

Structures can show the parent of a compound that is named as a salt.

Data set [1] can be described thus: Metabolic stability in human liver microsomes. In kind it is in vitro ADME. As for the experimental part: Pooled liver microsomes are purchased from a reputable commercial supplier. Microsomes are stored at […] prior to use. Microsomes (final protein concentration 0.5 mg/mL), 0.1 M phosphate buffer pH 7.4 and test compound (final substrate concentration 1 μM; final DMSO concentration 0.25%) are preincubated at 37° C. prior to the addition of NADPH (final concentration 1 mM) to initiate the reaction. A minus cofactor control incubation is included for each compound tested where 0.1 M phosphate buffer pH 7.4 is added instead of NADPH (minus NADPH). Two control compounds are included with each species. All incubations are performed singularly for each test compound. Each compound is incubated for 0, 5, 15, 30 and 45 min. The control (minus NADPH) is incubated for 45 min only. The reactions are stopped by transferring incubate into acetonitrile at the appropriate time points, in a 1:3 ratio. The termination plates are centrifuged at 3,000 rpm for 20 min at 4° C. to precipitate the protein.
From a plot of ln peak area ratio (compound peak area/internal standard peak area) against time, the gradient of the line is determined. Subsequently, half-life and intrinsic clearance are calculated using the equations below: Elimination rate constant (k)=(−gradient) Half-life (t½)(min)=0.693/k Intrinsic clearance (CLint)(μL/min/mg protein)=V×0.693/t½ where V=Incubation volume (μL)/Microsomal protein (mg)
Relevant control compounds were assessed, ensuring intrinsic clearance values fall within the specified limits (if available).
(In general: Liver microsomes are vesicles of endoplasmic reticulum, rich in cytochrome P450 enzymes.)

Data set [2] relates to participants diagnosed with at least moderate post-traumatic stress disorder (PTSD). Nature of the data set: Double-blind, randomized, placebo-controlled clinical trial of methylone-assisted psychotherapy in PTSD. In kind it is in vivo, human. The settings on record: for CAPS-5 assessments compared to placebo-treated controls: Intervening Session 1C, 2C, 3C and Study Conclusion; for clinician-rated functional impairment score as measured by SDS / depression as measured by HAM-D: vs placebo-treated controls; for change in CAPS-5 assessment compared to the placebo group: 100-200 mg p.o. initial dose, 3 Experimental Sessions with psychotherapy. The procedure: A multicenter, randomized, double-blind, placebo-controlled trial is conducted to assess the efficacy and safety of methylone-assisted psychotherapy versus psychotherapy with placebo control in participants diagnosed with at least moderate post-traumatic stress disorder (PTSD).
This multicenter, randomized, double-blind, placebo-controlled trial is conducted at various sites in the United States with IRB approval from each study site. A flexible dose of methylone hydrochloride salt or placebo, followed by a supplemental half-dose unless contraindicated by patient's previous response or medical history, is also administered during the Treatment Period with psychotherapy in at least 3 blinded monthly Experimental Sessions. The Supplemental Dose extends the duration of drug effects on the participants during an Experimental Session. Methylone test groups are further subdivided into specific groups receiving only racemic methylone hydrochloride salt, S-methylone hydrochloride salt, or R-methylone hydrochloride salt. An optional Risk Evaluation and Mitigation Strategy (REMS) Protocol may be implemented for the racemic methylone, S-methylone, and placebo-groups. The Treatment Period lasts for approximately 12 weeks. During the Treatment Period, each Experimental Session is followed by three Intervening Sessions of non-drug psychotherapy. Each Experimental Session involves an overnight stay. The Primary Outcome measure, the change in Clinician Administered PTSD Scale for DSM-5 (CAPS-5), is determined by a blinded Independent Rater (IR) pool multiple times throughout the study. The study consists of separate periods for each participant. Initially, prospective participants undergo a Screening Period involving an initial eligibility assessment, a medical history intake, informed consent, and enrollment of eligible participants. Next, a Preparation Period is undertaken for enrolled participants involving medication tapering and clinical baseline assessments to confirm each participant meets enrollment criteria. As part of the Preparation Period, a detailed assessment of co-morbidities to PTSD is recorded. Participants may remain on prescribed courses of selective serotonin reuptake inhibitor (SSRI) or serotonin and norepinephrine reuptake inhibitor (SNRI) treatment. Dosages and/or frequency of administration of a prescribed SSRI or SNRI may be adjusted to fit within study parameters. Participants may be required to taper a prescribed course of medication in order to maintain eligibility within the study. The Treatment Period consists of three monthly Experimental Sessions and associated Intervening Sessions of integrative behavioral psychotherapy. The Treatment Period lasts approximately 12 weeks. Following the Treatment Period is a Follow-up Period and Study Conclusion. During the Follow-up Period and Study Conclusion, participants complete 4 weeks with no study visits, followed by a Study Conclusion visit.
This study compares the effects of three blinded Experimental Sessions of psychotherapy in combination with flexible doses of methylone or placebo administered as described below. Non-drug preparatory and intervening psychotherapy sessions are also included. Patient's weight is determined for dosage calculation. Initial dose is 100 mg unless this will result in a dosage of less than 1.5 mg/kg of patient weight. Initial dose thereby adjusted upward in 25 mg increments to deliver the lowest dose possible of at least 1.5 mg/kg of patient weight. Initial dose for Experimental Session 2 and 3 is cumulative dose calculated by adding the initial dose plus REMS protocol dose used the previous Experimental Session for each patient.
Randomization occurs prior to the initiation of Experimental Session 1. Each participant is provided the next randomized number in a sequence by a blinded study monitor. […]

The next data set deals with Male Sprague-Dawley rats. The experiment in a line: Rat elevated zero-maze model of anxiety. In kind it is in vivo. To be noted: for decrease in SAPs compared with chlordiazepoxide / time spent in the open arms compared with chlordiazepoxide: 30 mg/kg ip vs chlordiazepoxide 6 mg/kg ip; for anxiolytic effects compared with chlordiazepoxide: high dose level; for time in the open arms: FIGS. 62-64. From the text:
The rat zero-maze model is a refined alternative to the plus-maze, the most widely used animal model of anxiety, and consists of an elevated annular platform, divided equally into four quadrants. Two opposite quadrants are enclosed by Perspex walls on both the inner and the outer edges of the platform, while the remaining two opposite quadrants are open being enclosed only by a Perspex “lip”. Animals will show a preference for the closed areas, and avoidance of the open sections is assumed to stem from a rodent's natural aversion to open, exposed spaces. The primary index of anxiety, which reflect changes in open arm preference, is the percentage of time spent on the open areas. A reduction in the amount of activity on the open areas is considered to reflect an increase in anxiety. Other, ethologically-based behaviours are also assessed as indices of anxiety. One of the most important is stretched attend postures (SAP) from closed to open quadrants. […] Shepherd, J K; et al., (1994) Behavioural and pharmacological validation of the elevated “zero-maze” as an animal model of anxiety. Psychopharmacol., 116:56-64.
Male Sprague-Dawley 200-250 g (Envigo UK) rats were used. Animals were group-housed (5 per cage; cage size: 40×40×20 cm) in a temperature-controlled environment (22±2° C.), under a 12 h light-dark cycle (lights on: 08:00 hours) for one week prior to testing. Food and water were freely available. Number of animals per group=5. Animals were moved into the experimental room 16-24 hours before testing.
The elevated 0-maze comprises a black Perspex annular platform (105 cm diameter, 10 cm width) elevated to 65 cm above ground level, divided equally into four quadrants. Two opposite quadrants are enclosed by clear red Perspex walls (27 cm high) on both the inner and outer edges of the platform, while the remaining two opposite quadrants are surrounded only by a Perspex “lip” (1 cm high) which serves as a tactile guide to animals on these open areas.
Subjects were weighed and tail marked before being injected. After a specified pre-treatment time, subjects were placed in a closed quadrant and a 5-min test period were recorded on videotape for subsequent analysis. The maze were cleaned with 5% methanol/water solution and dried thoroughly between test sessions. Behavioural measures comprise percentage time spent on the open areas (% TO) and frequency of stretched attend postures (SAP) from closed to open quadrants. Since the control groups were all treated identically with the same vehicle these were combined to increase power. The Chlordiazepoxide groups were also treated identically with the same dose so these were also combined to increase power. Animals are scored as being in the open area when all four paws were in an open quadrant and in the closed area only when all four paws have passed over the open-closed divide. All testing were carried out between 9.00 and 16.00 hours.
For each study, a 1-way ANOVA was conducted across vehicle, CDP, and drug treatment groups. Each group was compared to the vehicle group and a p-value for treatment determined by Fishers Least Significant Difference (LSD) test. This analysis was performed in GraphPad Prism (Version 9). Formulations: […]
Intraperitoneal (IP): Racemic methylone HCl was formulated in Vehicle 1 (Saline) for injection to concentrations of 1, 3 and 6 mg/mL to provide doses of 5, 15 and 30 mg/kg when administered ip in 5 mL/kg dosing volumes.
Intraperitoneal (IP): S-methylone HCl was formulated in Vehicle 1 (Saline) for injection to concentrations of 0.5, 1, 1.5, 3 and 6 mg/mL to provide doses of 2.5, 5, 7.5, 15 and 30 mg/kg when administered ip in 5 mL/kg dosing volumes.
Intraperitoneal (IP): R-methylone HCl was formulated in Vehicle 1 (Saline) for injection to concentrations of 1, 3 and 6 mg/mL to provide doses of 5, 15 and 30 mg/kg when administered ip in 5 mL/kg dosing volumes. […]

The mark [3] stands for this setting: specific doses, ip, 30 min pretest.
Where [4] appears, read: specific doses, ip, 30 min pretest, vs chlordiazepoxide 6 mg/kg, FIGS. 65-67.

Turning to `Cl.[2H]C([2H])([2H])N[C@@H](C)C(=O)c1ccc2c(c1)OCO2` [(S)-Methylone-d3 hydrochloride, (S)-1-(benzo[d][1,3]dioxol-5-yl)-2-((methyl-d3)amino)propan-1-one HCl], the “difference in half-life and intrinsic clearance compared with the corresponding non-deuterated methylone hydrochloride” value in data set [1] (human liver microsomes) is “differences in half-life and intrinsic clearance”. Moreover, the “CLint (μL/min/mg protein)” value in data set [1] (human liver microsomes 0.5 mg/mL, 1 μM compound, NADPH, 0-45 min) stood at 9.60 μL/min/mg protein.
As to `CN[C@H](C)C(=O)c1ccc2c(c1)OCO2` [(R)-Methylone Hydrochloride, (R)-1-(benzo[d][1,3]dioxol-5-yl)-2-(methylamino)propan-1-one hydrochloride], the “CAPS-5 assessments compared to placebo-treated controls” value in data set [2] is “Significant improvements in CAPS-5 assessments”. Besides, in data set [2] (Study Conclusion), the “daytime sleepiness as measured by ESS” value is recorded as “significant improvement in lessening daytime sleepiness”, the “clinician-rated functional impairment score as measured by SDS” value is on record as “significant improvement in clinician-rated functional impairment score”, the “depression as measured by HAM-D” value is reported as “significant improvement depression” and the “change in CAPS-5 assessment compared to the placebo group” value was “significant mean reduction in CAPS-5 assessment”. For the same compound, in data set [2] (compared to placebo-treated controls), the adverse anxiogenic incidents result was “without a significant increase in adverse anxiogenic incidents”. Also, in the data set with Male Sprague-Dawley rats (30 mg/kg ip), the “frequency of SAPs” value was “significantly decreasing SAPs”. Moreover, in the data set with Male Sprague-Dawley rats, the “decrease in SAPs compared with chlordiazepoxide” value was “to the same level as chlordiazepoxide”, the “time spent in the open arms compared with chlordiazepoxide” value is recorded as “as effective as chlordiazepoxide” and the “anxiolytic effects compared with chlordiazepoxide” value was “anxiolytic effects as effective as chlordiazepoxide”. Further, in the data set on Male Sprague-Dawley rats (5, 15 and 30 mg/kg ip), the “frequency of SAPs, trend with dose” value is reported as “dose dependent decrease in SAPs” and the “time spent in the open arms, trend with dose” value is “dose dependent increase in time spent in the open arms”. The anxiogenic effect entry in the data set on Male Sprague-Dawley rats (any dose (5, 15, 30 mg/kg ip)) is “did not show any anxiogenic effect at any dose”. In addition, the “anxiogenic effects at lower doses” value with Male Sprague-Dawley rats (ip) was “not seen”. Further, in the data set with Male Sprague-Dawley rats (setting [3]), the “time in the open arms” value was “increase time in the open arms”. Besides, in the data set with Male Sprague-Dawley rats (setting [4]), the “frequency of SAPs” value is listed as “decreased the frequency of SAPs as effectively as the benzodiazepine chlordiazepoxide”.
Turning to `CN[C@@H](C)C(=O)c1ccc2c(c1)OCO2` [(S)-Methylone Hydrochloride, (S)-1-(benzo[d][1,3]dioxol-5-yl)-2-(methylamino)propan-1-one hydrochloride], in data set [2], the “CAPS-5 assessments compared to placebo-treated controls” value is “Significant improvements in CAPS-5 assessments”. For the same compound, in data set [2] (Study Conclusion), the “daytime sleepiness as measured by ESS” value is “significant improvement in lessening daytime sleepiness”; the “total dosage of drug needed for significant mean reduction in CAPS-5, compared to the racemic methylone-treated subgroup” value is listed as “lower total dosage of drug”; the “clinician-rated functional impairment score as measured by SDS” value is on record as “significant improvement in clinician-rated functional impairment score”; the “depression as measured by HAM-D” value is reported as “significant improvement depression”. In data set [2] (Study Conclusion), the “change in CAPS-5 assessment compared to the placebo group” value is given as “significant mean reduction in CAPS-5 assessment”. Also, the “frequency of SAPs, trend with dose” value in the data set with Male Sprague-Dawley rats (2.5 mg/kg and 5 mg/kg ip) is reported as “dose dependent increase in SAPs”. Moreover, the “time spent in the open arms, trend with dose” value in the data set with Male Sprague-Dawley rats (5 mg/kg, 7.5 mg/kg and 15 mg/kg ip) is on record as “time spent in the open arms decreased as the dose increased”. Moreover, in the data set on Male Sprague-Dawley rats (7.5 mg/kg, 15 mg/kg and 30 mg/kg ip), the “frequency of SAPs, trend with dose” value is “dose dependent decrease in SAPS”. In the data set on Male Sprague-Dawley rats (30 mg/kg ip), the “overall effect on anxiety” value is listed as “effective anxiolytic on all measures” and the “time spent in the open arms” value is “time in the open arms increased”. In the data set on Male Sprague-Dawley rats, the “decrease in SAPs compared with chlordiazepoxide” value is “even more effective than chlordiazepoxide at reducing SAPs”, the “time spent in the open arms compared with chlordiazepoxide” value was “as effective as chlordiazepoxide at increasing time spent in the open arms” and the “anxiolytic effects compared with chlordiazepoxide” value was “anxiolytic effects as effective as chlordiazepoxide”. Besides, the “anxiogenic effects at lower doses” value with Male Sprague-Dawley rats (ip, hydrochloride) is recorded as “anxiogenic effects at lower doses”. The “time in the open arms” value in the data set with Male Sprague-Dawley rats (setting [3]) was “increase time in the open arms”. In addition, in the data set on Male Sprague-Dawley rats (setting [4]), the “frequency of SAPs” value is “decreased the frequency of SAPs as effectively as the benzodiazepine chlordiazepoxide”.
